Laboratory results: patent US20260022143A1, “Cyclic Peptide Inhibitors of IL-23” (JANSSEN PHARMACEUTICA NV, priority 2022, published 2026)
Structures can show the parent of a compound that is named as a salt. Starred links: 1 amine or outer side, 2 acyl side, 3 side chain; linkers in the order of their positions; H or OH if unused. Positions of bridges follow the written chain, without caps; N, C: chain ends. Non-standard residues stand in square brackets, D forms with d. Residues, ends and D or L forms follow the SMILES beside them. *: point of attachment. Trp(7-(3-AcNH-Ph)) = CC(=O)Nc1cccc(-c2cccc3c(C[C@H](N)C(=O)O)c[nH]c23)c1; Me3N+(CH2)2O(CH2)2O(CH2)2CO = C[N+](C)(C)CCOCCOCCC(=O)*; CH2CH2OCH2CH2OCH2CH2NMe3+ = C[N+](C)(C)CCOCCOCC*; Trp(7-Me) = Cc1cccc2c(C[C@H](N)C(=O)O)c[nH]c12; Hexanoyl(6-NMe3+) = C[N+](C)(C)CCCCCC(=O)*; dLys(Me3) = C[N+](C)(C)CCCC[C@@H](N)C(=O)O; X29 = O=C([C@H](CCn1ncnn1)N[*:1])[*:2]; 2Nal = N[C@@H](Cc1ccc2ccccc2c1)C(=O)O; AEF = NCCOc1ccc(C[C@H](N)C(=O)O)cc1; 3Pal = N[C@@H](Cc1cccnc1)C(=O)O; Lys(Me) = CNCCCC[C@H](N)C(=O)O; NHCH2CH2OCH2CH2OMe = COCCOCCN*; X53 = C[N+]1(CCOCCOCC*)CCOCC1; Pen = CC(C)(S)[C@H](N)C(=O)O; Thp = NC1(C(=O)O)CCOCC1; X42 = O=C(O)CCCCCCCC*; Tfa = O=C(C(F)(F)F)*; Sar = CNCC(=O)O

Assay: Exposed Polar Surface Area (EPSA)
Type: physicochemical
Settings: SFC on Chirex 3014 column; sample 1 mM DMSO stock; read-out: EPSA
Description: Exposed Polar Surface Area (EPSA) is an experimental descriptor of molecular polarity obtained from chromatographic retention in supercritical fluid chromatography (SFC).
The stationary phase (Chirex 3014(S)-valine and (R)-1-(alpha-naphthyl) ethylamine) was selected for its balance of lipophilic and polar attributes and its capacity to separate compounds with wide polarity differences. The mobile phase consists of methanol (+Ammonium formate) and CO2. Polar compounds are retained stronger under these conditions and a low-slope gradient of methanol achieves elution based on increasing polarity of the mobile phase. Results are normalized using calibration standards generating a linear relationship between retention times and EPSA values. The unit of EPSA is Å^2.
Along with the measurement of compounds of interest, a series of 8 calibration standards (see Materials) are analyzed generating a linear relationship between retention times and EPSA value. The 8 compounds used as calibration standard have their own EPSA value defined by G. Goetz based on the comparison with TPSA (see G. Goetz, L. Philippe and M. Shapiro, “EPSA: A novel supercritical fluid chromatography technique enabling the design of permeable cyclic peptides,” ACS Med. Chem. Lett., vol. 5, pp. 1167-1172, 2014 for more information). The slope from the linear relationship between EPSA values of these eight compounds and their retention times is used to determine the EPSA value of each compound of interest that's measured under the same condition using the equation as below: […]
The mixture of calibrations standard is reinjected every 20 compounds to validate the stability of the retention time.
The mobile phase modifier consists of ammonium formate LC_MS grade (>99%) (CAS number 540-69-2) diluted to 20 mM in HPLC grade Methanol (MeOH, CAS number 67-56-1) and liquid C02 SFC grade (CAS number 124-38-9).
Antipyrine (CAS number: 60-80-0) Chlorpromazine hydrochloride (CAS number: 69-09-0), desipramine hydrochloride (CAS number: […]), pindolol (CAS Number: 13523-86-9), diclofenac (CAS number: 15307-79-6)), m-nitro benzoic acid (CAS number: 121-92-6), bumetanide (CAS number: 28395-03-1), furosemide (CAS number: 54-31-9) were purchased from Sigma Aldrich (Steihneim, Germany).
All analyses were performed on a ultra performance convergence chromatography (UPC™) apparatus (Waters, Milford, MA, USA) equipped with a sample manager, a binary solvent delivery pump (BSM), a column manager, a convergence manager (automated back pressure regulator), a photo diode array detector (DAD) with a high pressure flow cell, and a mass detector simple quadrupole QDa. After the UV detector, the effluent of the SFC was mixed with an eluent consist of mixture MeOH/water (+0.3% Ammonia) 95/5 delivered by a make up pump with a flow rate of 0.4 mL/min and then split to the QDa using a splitter. The instrument was controlled, and data were processed with Masslynx 4.1.
The Analyses were performed using a 4.6×50 mm Chirex 3014(S)-valine and (R)-1-(alpha- naphthyl) ethylamine column (Phenomenex, Le Pecq, France) with 5 um particle and 100A pore size. The flow rate was 4 mL/min with the outlet pressure set to 14 MPa. The injection volume was 2 μL. the mobile phase composition was varied from 5% to 60% modifier at 20%/ min in a linear gradient, holding at 60% for 1.45 min and reverting to the original 5% until the end of the run. Data are acquired during 5 min. An equilibration time of 1 min is applied between 2 injections resulting in an injection every 6 min. each sample is analyzed in duplicate, resulting in a sample to sample turnaround time of 12 min.
The column temperature was set to 35° C. The mass detector was used in full scan from 100 to 800 for small molecules and from 500 to 1200 for peptides.
Each sample is delivered by compound logistics from DMSO stock solution without dilution. The concentration is 1 mM and the volume is 60 μL.

SMILES | EPSA [A^2]
CC(=O)NCCCC[C@@H]1NC(=O)[C@H](Cc2c[nH]c3cccc(C)c23)NC(=O)[C@H]([C@@H](C)O)NC(=O)[C@H](CC(N)=O)NC(=O)[C@@H](NC(C)=O)C(C)(C)SSC(C)(C)[C@@H](C(=O)N[C@@H](Cc2ccc(OCCCCC[N+](C)(C)C)cc2)C(=O)N[C@@H](Cc2ccc3ccccc3c2)C(=O)NC2(C(=O)N[C@@H](CCCCNC(C)=O)C(=O)N[C@@H](CC(N)=O)C(=O)N[C@@H](Cc3cccnc3)C(=O)N(C)CC(N)=O)CCCC2)NC1=O [compound 537, MeCO-Pen(3)-N-T-7MeW-K(Ac)-Pen(3)-TMAPF-2Nal-Acpx-K(Ac)-N-3Pya-Sar-CONH2] | 163
CC(=O)N[C@@H]1C(=O)N[C@@H](CC(=O)N(C)C)C(=O)N[C@@H]([C@@H](C)O)C(=O)N[C@@H](Cc2c[nH]c3c(C)cccc23)C(=O)N[C@@H](CCCCN(C)C(=O)CCOCCOCC[N+](C)(C)C)C(=O)N[C@H](C(=O)N[C@@H](Cc2ccc(OCCOCCOCC[N+](C)(C)C)cc2)C(=O)N[C@@H](Cc2ccc3ccccc3c2)C(=O)NC2(C(=O)N[C@@H](CCCCN(C)C(C)=O)C(=O)N[C@@H](CC(N)=O)C(=O)N[C@@H](Cc3cccnc3)C(=O)N(C)CC(=O)N(C)C)CCOCC2)C(C)(C)SSC1(C)C [compound 217, MeCO-Pen(3)-N(N(Me)2)-T-7MeW-K(NMePEG3a)-Pen(3)-APEG3F-2Nal-THP-K(NMeAc)-N-3Pya-Sar-CON(Me)2] (Ac-[Pen]D(NMe2)T[Trp(7-Me)][Lys(Me)](Me3N+(CH2)2O(CH2)2O(CH2)2CO)[Pen]Y(CH2CH2OCH2CH2OCH2CH2NMe3+)[2Nal][Thp][Lys(Me)](Ac)N[3Pal][Sar]-NMe2; disulfide 1-6) | 138
Cc1cccc2c(C[C@@H]3NC(=O)[C@H]([C@@H](C)O)NC(=O)[C@H](CC(N)=O)NC(=O)[C@@H](NC(=O)CCOCCOCC[N+](C)(C)C)C(C)(C)SSC(C)(C)[C@@H](C(=O)N[C@@H](Cc4ccc(OCCN)cc4)C(=O)N[C@@H](Cc4ccc5ccccc5c4)C(=O)NC4(C(=O)N[C@@H](CCC(=O)N(C)C)C(=O)N[C@@H](CC(N)=O)C(=O)N[C@@H](Cc5cccnc5)C(=O)N(C)CC(N)=O)CCOCC4)NC(=O)[C@H](CCC(=O)N(C)C)NC3=O)c[nH]c12 [compound 137, cPEG3aCO-Pen(3)-N-T-7MeW-Q(N(Me)2)-Pen(3)-AEF-2Nal-THP-Q(N(Me)2)-N-3Pya-Sar-CONH2] ({Me3N+(CH2)2O(CH2)2O(CH2)2CO}-[Pen]NT[Trp(7-Me)]E(NMe2)[Pen][AEF][2Nal][Thp]E(NMe2)N[3Pal][Sar]-NH2; disulfide 1-6) | 160
CC(=O)N(C)CCCC[C@@H]1NC(=O)[C@H](Cc2c[nH]c3c(C)cccc23)NC(=O)[C@H]([C@@H](C)O)NC(=O)[C@H](CC(=O)N(C)C)NC(=O)[C@@H](NC(=O)CCOCCOCC[N+](C)(C)C)C(C)(C)SSC(C)(C)[C@@H](C(=O)N[C@@H](Cc2ccc(OCCOCCOCC[N+]3(C)CCOCC3)cc2)C(=O)N[C@@H](Cc2ccc3ccccc3c2)C(=O)NC2(C(=O)N[C@@H](CCCCN(C)C(C)=O)C(=O)N[C@@H](CC(N)=O)C(=O)N[C@@H](Cc3cccnc3)C(=O)N(C)CC(=O)N(C)C)CCOCC2)NC1=O [compound 223, cPEG3aCO-Pen(3)-N(N(Me)2)-T-7MeW-K(NMeAc)-Pen(3)-MMPEG3F-2Nal-THP-K(NMeAc)-N-3Pya-Sar-CON(Me)2] ({Me3N+(CH2)2O(CH2)2O(CH2)2CO}-[Pen]D(NMe2)T[Trp(7-Me)][Lys(Me)](Ac)[Pen]Y(X53)[2Nal][Thp][Lys(Me)](Ac)N[3Pal][Sar]-NMe2; disulfide 1-6) | 141
CC(=O)N(C)CCCC[C@@H]1NC(=O)[C@H](Cc2c[nH]c3c(C)cccc23)NC(=O)[C@H]([C@@H](C)O)NC(=O)[C@H](CC(=O)N(C)C)NC(=O)[C@@H](NC(=O)CCOCCOCC[N+](C)(C)C)C(C)(C)SSC(C)(C)[C@@H](C(=O)N[C@@H](Cc2ccc(OCCCCCCCCC(=O)O)cc2)C(=O)N[C@@H](Cc2ccc3ccccc3c2)C(=O)NC2(C(=O)N[C@@H](CCCCN(C)C(C)=O)C(=O)N[C@@H](CC(N)=O)C(=O)N[C@@H](Cc3cccnc3)C(=O)N(C)CC(=O)N(C)C)CCOCC2)NC1=O [compound 236, cPEG3aCO-Pen(3)-N(N(Me)2)-T-7MeW-K(NMeAc)-Pen(3)-Y(C9OH)-2Nal-THP-K(NMeAc)-N-3Pya-Sar-CON(Me)2] ({Me3N+(CH2)2O(CH2)2O(CH2)2CO}-[Pen]D(NMe2)T[Trp(7-Me)][Lys(Me)](Ac)[Pen]Y(X42)[2Nal][Thp][Lys(Me)](Ac)N[3Pal][Sar]-NMe2; disulfide 1-6) | 159
CC(=O)NCCCC[C@@H]1NC(=O)[C@H](Cc2c[nH]c3c(C)cccc23)NC(=O)[C@H]([C@@H](C)O)NC(=O)[C@H](CC(N)=O)NC(=O)[C@@H](NC(C)=O)C(C)(C)SSC(C)(C)[C@@H](C(=O)N[C@@H](Cc2ccc(OCCN)cc2)C(=O)N[C@@H](Cc2ccc3ccccc3c2)C(=O)NC2(C(=O)N[C@@H](CCCCNC(=O)CCCCC[N+](C)(C)C)C(=O)N[C@@H](CC(N)=O)C(=O)N[C@@H](Cc3cccnc3)C(=O)N(C)CC(N)=O)CCOCC2)NC1=O [compound 85] (Ac-[Pen]NT[Trp(7-Me)]K(Ac)[Pen][AEF][2Nal][Thp]K(Hexanoyl(6-NMe3+))N[3Pal][Sar]-NH2; disulfide 1-6) | 151
CC(=O)NCCCC[C@@H]1NC(=O)[C@H](Cc2c[nH]c3c(C)cccc23)NC(=O)[C@H]([C@@H](C)O)NC(=O)[C@H](CC(N)=O)NC(=O)[C@@H](NC(=O)C(F)(F)F)C(C)(C)SSC(C)(C)[C@@H](C(=O)N[C@@H](Cc2ccc(OCCN)cc2)C(=O)N[C@@H](Cc2ccc3ccccc3c2)C(=O)NC2(C(=O)N[C@@H](CCn3ncnn3)C(=O)N[C@@H](CC(N)=O)C(=O)N[C@@H](Cc3cccnc3)C(=O)N(C)CC(N)=O)CCOCC2)NC1=O [compound 77] (Tfa-[Pen]NT[Trp(7-Me)]K(Ac)[Pen][AEF][2Nal][Thp][X29]N[3Pal][Sar]-NH2; disulfide 1-6) | 161
CC(=O)NCCCC[C@@H]1NC(=O)[C@H](Cc2c[nH]c3c(-c4cccc(NC(C)=O)c4)cccc23)NC(=O)[C@H]([C@@H](C)O)NC(=O)[C@H](CC(N)=O)NC(=O)[C@@H](NC(=O)[C@@H](CCCC[N+](C)(C)C)NC(C)=O)C(C)(C)SSC(C)(C)[C@@H](C(=O)N[C@@H](Cc2ccc(OCCN)cc2)C(=O)N[C@@H](Cc2ccc3ccccc3c2)C(=O)NC2(C(=O)N[C@@H](CCCCNC(C)=O)C(=O)N[C@@H](CC(N)=O)C(=O)N[C@@H](Cc3cccnc3)C(=O)N(C)CC(N)=O)CCOCC2)NC1=O [compound 449] (Ac-[dLys(Me3)][Pen]NT[Trp(7-(3-AcNH-Ph))]K(Ac)[Pen][AEF][2Nal][Thp]K(Ac)N[3Pal][Sar]-NH2; disulfide 2-7) | 176
COCCOCCNC(=O)CN(C)C(=O)[C@H](Cc1cccnc1)NC(=O)[C@H](CC(N)=O)NC(=O)[C@H](CCC(=O)O)NC(=O)C1(NC(=O)[C@H](Cc2ccc3ccccc3c2)NC(=O)[C@H](Cc2ccc(OCCN)cc2)NC(=O)[C@H]2NC(=O)[C@H](CCCCNC(C)=O)NC(=O)[C@H](Cc3c[nH]c4c(C)cccc34)NC(=O)[C@H]([C@@H](C)O)NC(=O)[C@H](CC(N)=O)NC(=O)[C@@H](NC(C)=O)C(C)(C)SSC2(C)C)CCOCC1 [compound 116] (Ac-[Pen]NT[Trp(7-Me)]K(Ac)[Pen][AEF][2Nal][Thp]EN[3Pal][Sar]-NHCH2CH2OCH2CH2OMe; disulfide 1-6 (inferred)) | 170
